The values below come from patent publication US9802927B2, “Oxadiazine compounds and methods of use thereof” (Denali Therapeutics, Inc., priority 2015, dated 2017).

The subject of one assay is Aβ42. Put plainly: In vitro cell screening assay in H4 cells expressing human APP751: Aβ42 by sandwich ELISA. The following applies: Homo sapiens, compounds 0.003-10 μM, incubated overnight (16-18 h), sandwich ELISA of supernatant. In kind it is cell-based. The procedure:
Human neuroglioma H4 cells were transfected with a pcDNA3.1 plasmid expressing human wild type APP751 cDNA and a stable cell line was generated using G418 selection. Cells were plated at 15,000 cells/well in Costar 96-well plates and placed at 37° C. and 5% CO2. Six hours after plating, cells were washed three times with Pro293™ chemically defined medium, followed by addition of compounds (0.003-10 μM, final DMSO concentration of 0.33%). Plates were incubated overnight (16-18 h) and supernatant was removed for quantification of Aβ peptides by sandwich ELISA. Cytotoxicity was evaluated using Cell-Titer 96W AQueous One Solution Cell Proliferation Assay according to the manufacturer's protocol.
Aβ peptide levels were quantified by sandwich ELISA. 96-well plates were coated with C-terminal specific Aβ antibodies recognizing either Aβ37, Aβ38, Aβ40, Aβ42, Aβ43 or a N-terminal specific Aβ antibody to detect Aβ 1-x. Plates were then blocked overnight at 4° C. with 1% bovine serum albumin (BSA) in PBS-T. Plates were washed and 100 μl of cultured cell supernatant or synthetic Aβ peptide standards and a detection antibody (4G8-HRP) were applied to the blocked plate and incubated overnight at 4° C. The next day, wells were washed before the addition of detection substrate (TMB peroxidase). Plates were then read for absorbance at 450 nm on a Molecular Devices SpectraMax M5e Microplate Reader.
Compound-treated samples were normalized to samples treated with DMSO alone (no inhibition) and to samples treated with DAPT. EC50 values were calculated from values reported as percent of DMSO controls using nonlinear regression, based on a sigmoidal dose response (variable slope) model. GraphPAD software from Prism used for calculation.
Background: An ELISA detects its analyte on a solid surface through an enzyme-linked reagent.
For orientation: EC50 means the midpoint of the concentration-response curve. A higher EC50 goes with a less potent agent. `COc1nc(C2=NOCC(c3cc4cccc(C)c4o3)N2C)ccc1-n1cnc(C)c1` (single isomer, unassigned; (+)) [Example 23, (+)-3-(6-Methoxy-5-(4-methyl-1H-imidazol-1-yl)pyridin-2-yl)-4-methyl-5-(7-methylbenzofuran-2-yl)-5,6-dihydro-4H-1,2,4-oxadiazine] came in with an EC50 of 61.9 nM. That is a double-digit nanomolar value.
Take `COc1nc(C2=NOCC(c3cc4cccc(C)c4o3)N2)ccc1-n1cnc(Cl)c1` (single isomer, unassigned; (+)) [Example 24, (+)-3-(5-(4-Chloro-1H-imidazol-1-yl)-6-methoxypyridin-2-yl)-5-(7-methylbenzofuran-2-yl)-5,6-dihydro-4H-1,2,4-oxadiazine]: the response was half-maximal at 13.7 nM (EC50). This EC50 is about 4.5-fold lower than that of the molecule before.
Molecule `COc1cn(-c2ccc(C3=NOCC(c4cc5cccc(C)c5o4)N3)nc2OC)cn1` (single isomer, unassigned; (+)) [Example 33, (+)-3-(6-methoxy-5-(4-methoxy-1H-imidazol-1-yl)pyridin-2-yl)-5-(7-methylbenzofuran-2-yl)-5,6-dihydro-4H-1,2,4-oxadiazine] gave an EC50 of 147 nM.

The same assay, now with this note: compounds 0.003-10 μM, incubated overnight (16-18 h), sandwich ELISA of supernatant.
As for `CCC1CON=C(c2ccc(-n3cnc(C)c3)c(OC)n2)N1` (single isomer, unassigned) [Example 133B, 5-ethyl-3-(6-methoxy-5-(4-methyl-1H-imidazol-1-yl)pyridin-2-yl)-5,6-dihydro-4H-1,2,4-oxadiazine], the EC50 was determined as 728 nM. This lies in the sub-micromolar range.
Same read-out and setting: the result for `COc1nc(C2=NOCC(C3CC3)N2)ccc1-n1cnc(C)c1` (single isomer, unassigned) [Example 134A, 5-cyclopropyl-3-(6-methoxy-5-(4-methyl-1H-imidazol-1-yl)pyridin-2-yl)-5,6-dihydro-4H-1,2,4-oxadiazine] reads more than 3000 nM.
Molecule `COc1nc(C2=NOCC(C3CC3)N2)ccc1-n1cnc(C)c1` (single isomer, unassigned) [Example 134B, 5-cyclopropyl-3-(6-methoxy-5-(4-methyl-1H-imidazol-1-yl)pyridin-2-yl)-5,6-dihydro-4H-1,2,4-oxadiazine] registered an EC50 of 1100 nM.
For `COc1nc(C2=NOCC(c3ccccc3Cl)N2)ccc1-n1cnc(C)c1` (single isomer, unassigned) [Example 136A, 5-(2-chlorophenyl)-3-(6-methoxy-5-(4-methyl-1H-imidazol-1-yl)pyridin-2-yl)-5,6-dihydro-4H-1,2,4-oxadiazine], the EC50 was 143 nM. This EC50 lies about 7.7-fold lower than the previous one.
`COc1nc(C2=NOCC(c3ccccc3Cl)N2)ccc1-n1cnc(C)c1` (single isomer, unassigned) [Example 136B, 5-(2-chlorophenyl)-3-(6-methoxy-5-(4-methyl-1H-imidazol-1-yl)pyridin-2-yl)-5,6-dihydro-4H-1,2,4-oxadiazine] returned an EC50 of 775 nM.
Same read-out and setting: the value for `COc1nc(C2=NOCC(CC3CC3)N2)ccc1-n1cnc(C)c1` (single isomer, unassigned) [Example 159A, 5-(cyclopropylmethyl)-3-(6-methoxy-5-(4-methyl-1H-imidazol-1-yl)pyridin-2-yl)-5,6-dihydro-4H-1,2,4-oxadiazine] was more than 3000 nM.
Consider `COc1nc(C2=NOCC(CC3CC3)N2)ccc1-n1cnc(C)c1` (single isomer, unassigned) [Example 159B, 5-(cyclopropylmethyl)-3-(6-methoxy-5-(4-methyl-1H-imidazol-1-yl)pyridin-2-yl)-5,6-dihydro-4H-1,2,4-oxadiazine], for which the midpoint of the response, the EC50, lay at 695 nM.
Same read-out and setting: the result for `COc1nc(C2=NOCC(c3noc4ccccc34)N2)ccc1-n1cnc(C)c1` (single isomer, unassigned) [Example 174A, 3-(3-(6-methoxy-5-(4-methyl-1H-imidazol-1-yl)pyridin-2-yl)-5,6-dihydro-4H-1,2,4-oxadiazin-5-yl) benzo[d]isoxazole] reads more than 3000 nM; that for `COc1nc(C2=NOCC(c3noc4ccccc34)N2)ccc1-n1cnc(C)c1` (single isomer, unassigned) [Example 174B, 3-(3-(6-methoxy-5-(4-methyl-1H-imidazol-1-yl)pyridin-2-yl)-5,6-dihydro-4H-1,2,4-oxadiazin-5-yl) benzo[d]isoxazole], 281 nM.
Take `COc1nc(C2=NOCC(c3ccc(Cl)c(C(F)(F)F)c3)N2)ccc1-n1cnc(C)c1` (single isomer, unassigned) [Example 253A, 5-(4-chloro-3-(trifluoromethyl)phenyl)-3-(6-methoxy-5-(4-methyl-1H-imidazol-1-yl)pyridin-2-yl)-5,6-dihydro-4H-1,2,4-oxadiazine]: the EC50 was determined as 654 nM. This EC50 lies about 2.3-fold higher than the previous one.
On to `COc1nc(C2=NOCC(c3ccc(Cl)c(C(F)(F)F)c3)N2)ccc1-n1cnc(C)c1` (single isomer, unassigned) [Example 253B, 5-(4-chloro-3-(trifluoromethyl)phenyl)-3-(6-methoxy-5-(4-methyl-1H-imidazol-1-yl)pyridin-2-yl)-5,6-dihydro-4H-1,2,4-oxadiazine], for which the EC50 stood at 8.4 nM. This EC50 lies about 78-fold lower than the previous one.
On the same count and under the same terms, the value for `COc1nc(C2=NOCC(c3cc4ccccc4o3)N2)ccc1-n1cnc(C)n1` (single isomer, unassigned; (+)) [Example 31B, (+)-5-(Benzofuran-2-yl)-3-(6-methoxy-5-(3-methyl-1H-1,2,4-triazol-1-yl)pyridin-2-yl)-5,6-dihydro-4H-1,2,4-oxadiazine] was 636 nM.
`COc1nc(C2=NOCC(c3ccc(Cl)c(Cl)c3)N2)ccc1-n1cnc(C)c1` (single isomer, unassigned; (+)) [Example 49B, (+)-5-(3,4-dichlorophenyl)-3-(6-methoxy-5-(4-methyl-1H-imidazol-1-yl)pyridin-2-yl)-5,6-dihydro-4H-1,2,4-oxadiazine] showed an EC50 of 11.4 nM.
In the case of `COc1nc(C2=NOCC(c3cc4ccc(F)cc4o3)N2)ccc1-n1cnc(C)c1` (single isomer, unassigned; (+)) [Example 52B, (+)-5-(6-fluorobenzofuran-2-yl)-3-(6-methoxy-5-(4-methyl-1H-imidazol-1-yl)pyridin-2-yl)-5,6-dihydro-4H-1,2,4-oxadiazine], the EC50 was 24.6 nM.
For the molecule `COc1ccc(C2CON=C(c3ccc(-n4cnc(C)c4)c(OC)n3)N2)cc1` (single isomer, unassigned; (+)) [Example 54B, (+)-3-(6-methoxy-5-(4-methyl-1H-imidazol-1-yl)pyridin-2-yl)-5-(4-methoxyphenyl)-5,6-dihydro-4H-1,2,4-oxadiazine], the EC50 came to 97.4 nM. Against the preceding molecule, the EC50 is about 4-fold higher.
`COc1nc(C2=NOCC(c3cc4cc(Cl)ccc4o3)N2)ccc1-n1cnc(C)c1` (single isomer, unassigned; (+)) [Example 57B, (+)-5-(5-chlorobenzofuran-2-yl)-3-(6-methoxy-5-(4-methyl-1H-imidazol-1-yl)pyridin-2-yl)-5,6-dihydro-4H-1,2,4-oxadiazine] returned an EC50 of 17.8 nM.
Consider `COc1nc(C2=NOCC(c3ccc(C(F)(F)F)cc3)N2)ccc1-n1cnc(C)c1` (single isomer, unassigned; (+)) [Example 59B, (+)-3-(6-methoxy-5-(4-methyl-1H-imidazol-1-yl)pyridin-2-yl)-5-(4-(trifluoromethyl)phenyl)-5,6-dihydro-4H-1,2,4-oxadiazine], for which the EC50 turned out to be 33.7 nM. Compared with the last molecule, the EC50 is about 1.9-fold higher.
`COc1nc(C2=NOCC(C3CCCCC3)N2)ccc1-n1cnc(C)c1` (single isomer, unassigned; (+)) [Example 61B, (+)-5-cyclohexyl-3-(6-methoxy-5-(4-methyl-1H-imidazol-1-yl)pyridin-2-yl)-5,6-dihydro-4H-1,2,4-oxadiazine] displayed an EC50 of 57.8 nM.
`COc1nc(C2=NOCC(c3cc4cccc(Cl)c4o3)N2)ccc1-n1cnc(C)c1` (single isomer, unassigned; (+)) [Example 64B, (+)-5-(7-chlorobenzofuran-2-yl)-3-(6-methoxy-5-(4-methyl-1H-imidazol-1-yl)pyridin-2-yl)-5,6-dihydro-4H-1,2,4-oxadiazine] displayed an EC50 of 12.2 nM.
On to `COc1nc(C2=NOCC(c3sc4ccccc4c3C)N2)ccc1-n1cnc(C)c1` (single isomer, unassigned; (+)) [Example 66B, (+)-3-(6-methoxy-5-(4-methyl-1H-imidazol-1-yl)pyridin-2-yl)-5-(3-methylbenzo [b]thiophen-2-yl)-5,6-dihydro-4H-1,2,4-oxadiazine], for which the EC50 was 9.1 nM.
Take `COc1nc(C2=NOCC(c3csc4ccccc34)N2)ccc1-n1cnc(C)c1` (single isomer, unassigned; (+)) [Example 68B, (+)-5-(benzo [b]thiophen-3-yl)-3-(6-methoxy-5-(4-methyl-1H-imidazol-1-yl)pyridin-2-yl)-5,6-dihydro-4H-1,2,4-oxadiazine]: it took 20.8 nM to reach a half-maximal effect (EC50).
The molecule `COc1nc(C2=NOCC(c3ccc(OC(F)(F)F)cc3)N2)ccc1-n1cnc(C)c1` (single isomer, unassigned; (+)) [Example 70B, (+)-3-(6-methoxy-5-(4-methyl-1H-imidazol-1-yl)pyridin-2-yl)-5-(4-(trifluoromethoxy)phenyl)-5,6-dihydro-4H-1,2,4-oxadiazine] yielded an EC50 of 21.8 nM.
